The values below come from ChEMBL document CHEMBL5120804, “Total Syntheses and Anti-inflammatory Evaluations of Pongamosides A-C, Natural Furanoflavonoid Glucosides from Fruit of Pongamia pinnata (L.) Pierre” (J Nat Prod, 2022).

The structures appear in SMILES notation. pIC50: −log10 of the molar value. Calls of active or inactive are those of the source. The rule behind the calls is not given here.

The subject of assay [1] is RAW264.7. The assay can be described thus: Antiinflammatory activity in mouse RAW264.7 assessed as inhibition of LPS-induced NO production at 25 uM pretreated for 2 hrs followed by LPS addition and measured after 24 hrs. The class given is functional, cell-based. The conditions noted are these: time 26.0 hrs.
Assay [2] deals with RAW264.7. In words: Antiinflammatory activity in mouse RAW264.7 assessed as inhibition of LPS-induced NO production pretreated for 2 hrs followed by LPS addition and measured after 24 hrs. The assay is classed as functional, cell-based.

As a reminder, the pIC50 is −log10 of the IC50, conventionally taken in molar units. `COc1c(-c2ccccc2)oc2c(cc(O)c3occc32)c1=O`: in the assay with RAW264.7 [1], the outcome was Active. The negative logarithm of the IC50 (pIC50) in the assay with RAW264.7 [2] is 4.65.

Regarding `O=c1cc(-c2cccc(O)c2)oc2c1ccc1occc12`, the outcome in the assay on RAW264.7 [1] was Active. The pIC50 in the assay with RAW264.7 [2] was 4.56.

For the compound `COc1c(-c2ccccc2)oc2c(cc(O[C@@H]3O[C@H](CO)[C@@H](O)[C@H](O)[C@H]3O)c3occc32)c1=O`, the result with RAW264.7 [1] was Active.

In the case of `COc1cc2c(=O)cc(-c3cccc(O)c3)oc2c2ccoc12`, in the assay with RAW264.7 [1], the outcome was Active.
